The record followed here is patent US6111067A, “A-82846-type glycopeptide antibiotics” (Eli Lilly and Company, priority 1993, dated 2000).

The subject of one assay is Escherichia coli EC14. The assay is described as follows: In vitro antibacterial activity, agar-dilution MIC. It is filed as cell-based. As to conditions: highest level tested 128 mcg/mL. As for the experimental part:
(§1) The formula 1 compounds have in vitro and in vivo activity against Gram-positive pathogenic bacteria. The MIC's were determined by standard agar-dilution assays.

In assay [1] the test system is Haemophilus influenzae C.L. Kind of assay: In vitro antibacterial activity, agar-dilution MIC. It is filed as cell-based. The following applies: ampicillin-sensitive strain, highest level tested 128 mcg/mL. As for the experimental part: as §1
In assay [2] the test system is Staphylococcus aureus X1.1. The assay is described as follows: In vitro antibacterial activity, agar-dilution MIC. It is filed as cell-based. The procedure: as §1
The test system of assay [3] is Streptococcus pyogenes C203. The assay is described as follows: In vitro antibacterial activity, agar-dilution MIC. It is filed as cell-based. The procedure:
as §1

Assay [4] relates to Haemophilus influenzae 76. Kind of assay: In vitro antibacterial activity, agar-dilution MIC. It is filed as cell-based. As to conditions: Haemophilus influenzae 76, ampicillin-resistant strain, highest level tested 128 mcg/mL. The procedure:
as §1

The test system of assay [5] is Staphylococcus epidermidis 222. The assay is described as follows: In vitro antibacterial activity, agar-dilution MIC. It is filed as cell-based. The procedure: as §1
Assay [6] relates to Streptococcus Group D 2041. The assay is described as follows: In vitro antibacterial activity, agar-dilution MIC. It is filed as cell-based. As for the experimental part: as §1
Assay [7] deals with Staphylococcus aureus V41. The assay is described as follows: In vitro antibacterial activity, agar-dilution MIC. It is filed as cell-based. The following applies: Staphylococcus aureus V41, penicillin-resistant strain. As for the experimental part: as §1
Assay [8] has as its system Streptococcus Group D X66. The assay is described as follows: In vitro antibacterial activity, agar-dilution MIC. It is filed as cell-based. As for the experimental part: as §1
Assay [9] relates to Klebsiella pneumoniae X26. Kind of assay: In vitro antibacterial activity, agar-dilution MIC. It is filed as cell-based. The following applies: highest level tested 128 mcg/mL. The procedure: as §1
The subject of assay [10] is Staphylococcus aureus X400. Kind of assay: In vitro antibacterial activity, agar-dilution MIC. It is filed as cell-based. As to conditions: Staphylococcus aureus X400, methicillin-resistant strain. As for the experimental part: as §1
Assay [11] deals with Staphylococcus aureus S13E. It is filed as cell-based. The following applies: agar dilution. As for the experimental part: as §1
For orientation: In agar dilution the substance is mixed into plates at graded concentrations.

Assay [12] deals with Streptococcus pneumoniae Park I. It is filed as cell-based. As to conditions: agar dilution. The procedure: as §1
Another assay relates to Streptococcus pneumoniae. The assay is described as follows: In vivo activity against experimentally-induced infection in mice (ED50). The following applies: mice infected with Streptococcus pneumoniae; subcutaneous doses 1 and 4 hours postinfection. The procedure:
(§2) The formula 1 compounds have also shown in vivo antimicrobial activity against experimentally-induced infections in laboratory animals. When two doses of test compound were administered to mice experimentally infected with the test organism, the activity observed was measured as an ED50 value [effective dose in mg/kg to protect 50% of the test animals: see Warren Wick, et al., J. Bacteriol. 81, 233-235 (1961)]. ED50 values observed for illustrative compounds are given in Table III. | ^a mg/kg × 2; doses administered subcutaneously to mice 1 and 4 | hours postinfection

Another assay deals with Staphylococcus aureus. Described as above. The following applies: mice infected with Staphylococcus aureus; subcutaneous doses 1 and 4 hours postinfection. As for the experimental part:
as §2

In a further assay the test system is Streptococcus pyogenes. Described as above. As to conditions: mice infected with Streptococcus pyogenes; subcutaneous doses 1 and 4 hours postinfection. The procedure: as §2
Assay [13] has as its system Staphylococcus epidermidis 270. Kind of assay: In vitro antibacterial activity, agar-dilution MIC. It is filed as cell-based.

Converted amounts (≈) assume the structure as drawn.

On to `CN[C@H](CC(C)C)C(=O)N[C@H]1C(=O)N[C@@H](CC(N)=O)C(=O)N[C@H]2C(=O)N[C@H]3C(=O)N[C@H](C(=O)N[C@H](C(=O)O)c4cc(O)cc(O)c4-c4cc3ccc4O)[C@H](O[C@H]3C[C@](C)(N)[C@@H](O)[C@H](C)O3)c3ccc(c(Cl)c3)Oc3cc2cc(c3O)Oc2ccc(cc2Cl)[C@H]1O` [Compound 3b], for which the MIC entry was “-- (Not active at 128 mcg/mL, the highest level tested)” in the assay on Escherichia coli EC14; 32 µg/mL (≈ 24.9 µM) in assay [1]; 0.125 µg/mL (≈ 0.0971 µM) in assay [2]; 0.25 µg/mL (≈ 0.194 µM) in [3]; 64 µg/mL (≈ 49.7 µM) in assay [4]; 0.25 µg/mL (≈ 0.194 µM) in [5]. Moreover, the MIC is 1 µg/mL (≈ 0.777 µM) in assay [6]; 0.25 µg/mL (≈ 0.194 µM) in [7]; 0.5 µg/mL (≈ 0.388 µM) in assay [8]; “-- (Not active at 128 mcg/mL, the highest level tested)” in assay [9]; 0.5 µg/mL (≈ 0.388 µM) in [10]; 0.125 µg/mL (≈ 0.0971 µM) in assay [11]. Further, the MIC in [12] turned out to be 0.25 µg/mL (≈ 0.194 µM); in assay [13], 0.5 µg/mL (≈ 0.388 µM). In addition, the “ED50 Value” with Streptococcus pneumoniae amounted to 0.30 mg/kg × 2; in the assay on Staphylococcus aureus, 0.50 mg/kg × 2; in the assay on Streptococcus pyogenes it was 0.40 mg/kg × 2.
As to `CN[C@H](CC(C)C)C(=O)N[C@H]1C(=O)N[C@@H](CC(N)=O)C(=O)N[C@H]2C(=O)N[C@H]3C(=O)N[C@H](C(=O)N[C@H](C(=O)O)c4cc(O)cc(O)c4-c4cc3ccc4O)[C@H](O)c3ccc(cc3)Oc3cc2cc(c3O)Oc2ccc(cc2Cl)[C@H]1O` [Compound 2c], the MIC entry against Escherichia coli EC14 is “-- (Not active at 128 mcg/mL, the highest level tested)”; in assay [1], “-- (Not active at 128 mcg/mL, the highest level tested)”; in assay [2], 4 µg/mL (≈ 3.61 µM); in [3], 4 µg/mL (≈ 3.61 µM); in [4] it was “-- (Not active at 128 mcg/mL, the highest level tested)”; in assay [5], 8 µg/mL (≈ 7.21 µM). For the same molecule, the MIC in assay [6] was 16 µg/mL (≈ 14.4 µM); in assay [7], 4 µg/mL (≈ 3.61 µM); in assay [8] it was 8 µg/mL (≈ 7.21 µM); in assay [9], “-- (Not active at 128 mcg/mL, the highest level tested)”; in [10], 8 µg/mL (≈ 7.21 µM); in [11], 4 µg/mL (≈ 3.61 µM). The MIC in [12] and in assay [13] was 4 µg/mL (≈ 3.61 µM) throughout.
With `CN[C@H](CC(C)C)C(=O)N[C@H]1C(=O)N[C@@H](CC(N)=O)C(=O)N[C@H]2C(=O)N[C@H]3C(=O)N[C@H](C(=O)N[C@H](C(=O)O)c4cc(O)cc(O)c4-c4cc3ccc4O)[C@H](O[C@H]3C[C@](C)(N)[C@@H](O)[C@H](C)O3)c3ccc(c(Cl)c3)Oc3cc2cc(c3O[C@@H]2O[C@H](CO)[C@@H](O)[C@H](O)[C@H]2O)Oc2ccc(cc2Cl)[C@H]1O` [Compound 3a], the MIC entry in the assay on Escherichia coli EC14 is “-- (Not active at 128 mcg/mL, the highest level tested)”; in assay [1], 64 µg/mL (≈ 44.2 µM); in [2], 0.25 µg/mL (≈ 0.173 µM); in assay [3] it was 0.25 µg/mL (≈ 0.173 µM); in assay [4], “-- (Not active at 128 mcg/mL, the highest level tested)”; in assay [5] it was 0.5 µg/mL (≈ 0.345 µM). Further, the MIC was 1 µg/mL (≈ 0.69 µM) in assay [6]; 0.25 µg/mL (≈ 0.173 µM) in [7]; 0.5 µg/mL (≈ 0.345 µM) in [8]; “-- (Not active at 128 mcg/mL, the highest level tested)” in assay [9]; 0.5 µg/mL (≈ 0.345 µM) in assay [10]; 0.25 µg/mL (≈ 0.173 µM) in assay [11]. Besides, the MIC was 0.25 µg/mL (≈ 0.173 µM) in [12] and 1 µg/mL (≈ 0.69 µM) in [13]. The “ED50 Value” in the assay on Streptococcus pneumoniae is on record as 0.34 mg/kg × 2; with Staphylococcus aureus, 0.54 mg/kg × 2; in the assay on Streptococcus pyogenes it was 0.70 mg/kg × 2.
As for `CN[C@H](CC(C)C)C(=O)N[C@H]1C(=O)N[C@@H](CC(N)=O)C(=O)N[C@H]2C(=O)N[C@H]3C(=O)N[C@H](C(=O)N[C@H](C(=O)O)c4cc(O)cc(O)c4-c4cc3ccc4O)[C@H](O[C@H]3C[C@](C)(N)[C@@H](O)[C@H](C)O3)c3ccc(cc3)Oc3cc2cc(c3O)Oc2ccc(cc2Cl)[C@H]1O` [Compound 2b], the MIC result was “-- (Not active at 128 mcg/mL, the highest level tested)” in the assay on Escherichia coli EC14; “-- (Not active at 128 mcg/mL, the highest level tested)” in assay [1]; 1 µg/mL (≈ 0.798 µM) in [2]; 1 µg/mL (≈ 0.798 µM) in [3]; “-- (Not active at 128 mcg/mL, the highest level tested)” in [4]; 2 µg/mL (≈ 1.6 µM) in [5]. Also, the MIC is 4 µg/mL (≈ 3.19 µM) in assay [6]; 1 µg/mL (≈ 0.798 µM) in [7]; 1 µg/mL (≈ 0.798 µM) in [8]; “-- (Not active at 128 mcg/mL, the highest level tested)” in assay [9]; 1 µg/mL (≈ 0.798 µM) in [10]; 1 µg/mL (≈ 0.798 µM) in assay [11]. The MIC in assay [12] turned out to be 1 µg/mL (≈ 0.798 µM); in [13], 2 µg/mL (≈ 1.6 µM). Also, the “ED50 Value” in the assay with Streptococcus pneumoniae is 3.74 mg/kg × 2; with Staphylococcus aureus it was 3.06 mg/kg × 2; in the assay with Streptococcus pyogenes, 3.54 mg/kg × 2.
Consider `CNC(CC(C)C)C(=O)NC1C(=O)NC(CC(N)=O)C(=O)NC2C(=O)NC3C(=O)NC(C(=O)NC(C(=O)O)c4cc(O)cc(O)c4-c4cc3ccc4O)C(OC3CC(C)(N)C(O)C(C)O3)c3ccc(cc3)Oc3cc2cc(c3OC2OC(CO)C(O)C(O)C2O)Oc2ccc(cc2Cl)C1O` (stereo not shown) [Compound 2a], for which the MIC entry was “-- (Not active at 128 mcg/mL, the highest level tested)” against Escherichia coli EC14; “-- (Not active at 128 mcg/mL, the highest level tested)” in assay [1]; 0.5 µg/mL (≈ 0.353 µM) in [2]; 0.5 µg/mL (≈ 0.353 µM) in assay [3]; “-- (Not active at 128 mcg/mL, the highest level tested)” in assay [4]; 1 µg/mL (≈ 0.707 µM) in assay [5]. Also, the MIC in assay [6] was 4 µg/mL (≈ 2.83 µM); in [7] it was 1 µg/mL (≈ 0.707 µM); in [8], 1 µg/mL (≈ 0.707 µM); in [9], “-- (Not active at 128 mcg/mL, the highest level tested)”; in [10], 1 µg/mL (≈ 0.707 µM); in assay [11], 0.5 µg/mL (≈ 0.353 µM). Further, the MIC in assay [12] and in assay [13] was 1 µg/mL (≈ 0.707 µM) in each case. Also, the “ED50 Value” in the assay with Streptococcus pneumoniae was 2.04 mg/kg × 2; with Staphylococcus aureus it was 2.97 mg/kg × 2; in the assay on Streptococcus pyogenes, 3.54 mg/kg × 2.
